Assay results from US20200291018A1, “TAM KINASE INHIBITORS” (SYROS PHARMACEUTICALS, INC., priority 2017, published 2020).

Columns and labels:
FLT3 = biological target: T1, FLT3 (Homo sapiens, UniProt P36888); assay: TR-FRET kinase activity assay, FLT3; type: biochemical; details: ATP at Km, 60 minutes
T1 sequence (P36888 27-993): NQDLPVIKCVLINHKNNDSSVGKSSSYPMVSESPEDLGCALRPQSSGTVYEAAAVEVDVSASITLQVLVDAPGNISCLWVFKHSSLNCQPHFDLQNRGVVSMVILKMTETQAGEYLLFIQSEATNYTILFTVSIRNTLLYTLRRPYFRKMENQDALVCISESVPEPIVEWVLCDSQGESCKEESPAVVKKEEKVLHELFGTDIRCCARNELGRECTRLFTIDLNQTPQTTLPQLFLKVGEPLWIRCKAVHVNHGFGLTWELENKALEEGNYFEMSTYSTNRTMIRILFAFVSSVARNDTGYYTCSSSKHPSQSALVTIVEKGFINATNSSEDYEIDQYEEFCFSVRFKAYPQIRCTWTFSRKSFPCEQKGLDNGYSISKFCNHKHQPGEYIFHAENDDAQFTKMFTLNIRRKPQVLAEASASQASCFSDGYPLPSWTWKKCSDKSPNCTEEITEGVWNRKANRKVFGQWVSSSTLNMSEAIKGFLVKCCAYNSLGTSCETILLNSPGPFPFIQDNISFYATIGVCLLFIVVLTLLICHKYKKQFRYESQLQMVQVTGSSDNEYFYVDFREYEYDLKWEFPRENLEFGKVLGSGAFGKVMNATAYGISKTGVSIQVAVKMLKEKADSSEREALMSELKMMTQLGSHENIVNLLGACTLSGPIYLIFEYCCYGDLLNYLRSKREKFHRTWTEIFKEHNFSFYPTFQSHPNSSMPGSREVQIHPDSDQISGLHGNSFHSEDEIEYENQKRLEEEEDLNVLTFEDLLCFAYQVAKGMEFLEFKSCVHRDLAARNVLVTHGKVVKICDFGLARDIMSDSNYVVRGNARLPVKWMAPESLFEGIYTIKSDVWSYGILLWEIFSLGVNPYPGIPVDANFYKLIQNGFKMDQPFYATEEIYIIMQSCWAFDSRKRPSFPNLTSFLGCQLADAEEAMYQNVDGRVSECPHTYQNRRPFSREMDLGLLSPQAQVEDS
In short: (§1)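 IC50s come from loss of TR-FRET between a Eu-labeled phospho-site antibody and fluorescent tyrosine-phosphorylated peptide. Kinase reactions, initiated with Km ATP, ran 60 min at RT at pH 7.5 before EDTA quench.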

TYRO3 = biological target: T2, TYRO3 (Homo sapiens, UniProt Q06418); assay: TR-FRET kinase activity assay, TYRO3; type: biochemical; details: ATP at Km, 60 minutes
T2 sequence (Q06418 41-890): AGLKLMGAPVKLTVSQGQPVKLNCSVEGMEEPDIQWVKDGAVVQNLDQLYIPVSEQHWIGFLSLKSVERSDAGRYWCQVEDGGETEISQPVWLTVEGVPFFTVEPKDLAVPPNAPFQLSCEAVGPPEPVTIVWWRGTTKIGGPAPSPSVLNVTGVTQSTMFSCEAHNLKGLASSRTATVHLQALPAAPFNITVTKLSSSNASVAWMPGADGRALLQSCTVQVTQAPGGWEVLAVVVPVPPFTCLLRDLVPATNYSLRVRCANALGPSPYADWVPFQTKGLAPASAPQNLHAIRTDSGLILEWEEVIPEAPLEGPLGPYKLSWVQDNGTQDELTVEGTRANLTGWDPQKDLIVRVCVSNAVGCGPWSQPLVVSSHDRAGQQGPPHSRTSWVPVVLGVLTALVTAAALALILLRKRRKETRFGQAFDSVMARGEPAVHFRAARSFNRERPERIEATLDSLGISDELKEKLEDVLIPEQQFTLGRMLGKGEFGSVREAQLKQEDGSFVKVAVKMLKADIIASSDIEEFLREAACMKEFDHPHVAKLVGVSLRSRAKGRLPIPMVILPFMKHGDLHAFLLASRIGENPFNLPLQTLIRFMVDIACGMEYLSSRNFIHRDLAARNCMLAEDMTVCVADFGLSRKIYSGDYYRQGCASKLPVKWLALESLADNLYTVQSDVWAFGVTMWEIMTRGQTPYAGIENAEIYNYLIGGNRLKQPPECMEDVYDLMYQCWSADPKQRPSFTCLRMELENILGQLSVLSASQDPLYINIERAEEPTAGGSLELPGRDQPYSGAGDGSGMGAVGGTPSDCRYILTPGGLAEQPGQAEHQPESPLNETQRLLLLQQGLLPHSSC
In short: as §1

| Compound | IC50 (FLT3) [µM] | IC50 (TYRO3) [µM] |
| --- | --- | --- |
| C[C@@H](CCF)Nc1ncc2c(OC3CCOCC3)ncc([C@H]3CC[C@H](O)CC3)c2n1 [Compound 311] | 1 to 10 | ≤ 0.1 |
| COC[C@H](C)Nc1ncc2c(OC3CCOCC3)ncc([C@H]3CC[C@H](NS(C)(=O)=O)CC3)c2n1 [Compound 316] | 1 to 10 | ≤ 0.1 |
| COCCN1C(C)(C)CC(Oc2ncc([C@H]3CC[C@H](O)CC3)c3nc(N[C@@H](C)COC)ncc23)CC1(C)C [Compound 310] | 1 to 10 | ≤ 0.1 |
| C[C@@H](CC(F)(F)F)Nc1ncc2c(OC3CCN(C)CC3)ncc([C@H]3CC[C@H](O)CC3)c2n1 [Compound 352] | 1 to 10 | ≤ 0.1 |
| COC[C@H](C)Nc1ncc2c(OC3CCOCC3)ncc(-c3cccc(C(N)=O)c3)c2n1 [Compound 325] | 1 to 10 | 1 to 10 |
| CC1(Nc2ncc3c(OC4CCNCC4)ncc([C@H]4CC[C@H](O)CC4)c3n2)CC1 [Compound 291] | 1 to 10 | ≤ 0.1 |
| COC[C@H](C)Nc1ncc2c(OC3CCOCC3)ncc(-c3cnn([C@H]4CCN(C)C4)c3)c2n1 [Compound 334] | 1 to 10 | 0.1 to 1 |
| COC[C@H](C)Nc1ncc2c(O[C@H]3CCNCC3(F)F)ncc([C@H]3CC[C@H](O)CC3)c2n1 [Compound 302] | 1 to 10 | 0.1 to 1 |
| CNS(=O)(=O)N[C@H]1CC[C@H](c2cnc(OC3CCOCC3)c3cnc(N[C@@H](C)COC)nc32)CC1 [Compound 317] | > 10 | ≤ 0.1 |
| C[C@H](CC(F)(F)F)Nc1ncc2c(OC3CCOCC3)ncc([C@H]3CC[C@H](O)CC3)c2n1 [Compound 338] | 1 to 10 | 0.1 to 1 |
| CNC(=O)N[C@H]1CC[C@H](c2cnc(OC3CCOCC3)c3cnc(N[C@@H](C)COC)nc32)CC1 [Compound 340] | 1 to 10 | 0.1 to 1 |
| COC[C@H](C)Nc1ncc2c(C3CC3)ncc([C@H]3CC[C@H](O)CC3)c2n1 [Compound 349] | 1 to 10 | ≤ 0.1 |
| COC[C@H](C)Nc1ncc2c(OC3CCN(c4ncccn4)CC3)ncc([C@H]3CC[C@H](O)CC3)c2n1 [Compound 344] | 1 to 10 | 0.1 to 1 |
| COC[C@H](C)Nc1ncc2c(OC3CCOCC3)ncc([C@H]3CC[C@](O)(C(F)(F)F)CC3)c2n1 [Compound 330] | 1 to 10 | 0.1 to 1 |
| CNC(=O)N1CCC(c2cnc(OC3CCOCC3)c3cnc(N[C@@H](C)COC)nc23)CC1 [Compound 345] | 1 to 10 | 1 to 10 |
| CCOC[C@H](C)Nc1ncc2c(OC3CCOCC3)ncc([C@H]3CC[C@H](O)CC3)c2n1 [Compound 281] | 1 to 10 | 0.1 to 1 |
| CC[C@H](C)Nc1ncc2c(O[C@H]3CC[C@H](N)CC3)ncc([C@H]3CC[C@H](O)CC3)c2n1 [Compound 321] | 0.1 to 1 | ≤ 0.1 |
| COC[C@H](C)Nc1ncc2c(C)ncc([C@H]3CC[C@H](O)CC3)c2n1 [Compound 303] | 1 to 10 | ≤ 0.1 |

Next, values leading:

| IC50 (FLT3) [µM] | IC50 (TYRO3) [µM] | Compound |
| --- | --- | --- |
| 1 to 10 | 0.1 to 1 | CC(C)Nc1ncc2c(OC3CCOCC3)ncc(-c3cccc(S(=O)(=O)C(C)C)c3)c2n1 [Compound 318] |
| 1 to 10 | 0.1 to 1 | CCC1(Nc2ncc3c(OC4CCOCC4)ncc([C@H]4CC[C@H](O)CC4)c3n2)CC1 [Compound 339] |
| 1 to 10 | 0.1 to 1 | CNS(=O)(=O)N1CCC(c2cnc(OC3CCOCC3)c3cnc(N[C@@H](C)COC)nc23)CC1 [Compound 341] |
| 1 to 10 | 0.1 to 1 | COC[C@H](C)Nc1ncc2c(OC3CCOCC3)ncc(-c3cccc(S(N)(=O)=O)c3)c2n1 [Compound 328] |
| 0.1 to 1 | 0.1 to 1 | CN(C)S(=O)(=O)c1cccc(-c2cnc(OC3CCOCC3)c3cnc(NC4(C)CC4)nc23)c1 [Compound 322] |
| 1 to 10 | 0.1 to 1 | COC[C@H](C)Nc1ncc2c(OC3CCN(S(C)(=O)=O)CC3)ncc([C@H]3CC[C@H](O)CC3)c2n1 [Compound 289] |
| 0.1 to 1 | 0.1 to 1 | CC[C@H](C)Nc1ncc2c(O[C@H]3CC[C@](C)(O)CC3)ncc([C@H]3CC[C@H](O)CC3)c2n1 [Compound 287] |
| 1 to 10 | 0.1 to 1 | COC[C@H](C)Nc1ncc2c(OC3CCOCC3)ncc(-c3ccc(CC#N)cc3)c2n1 [Compound 319] |
| 1 to 10 | 0.1 to 1 | COC[C@H](C)Nc1ncc2c(OC3CCOCC3)ncc([C@H]3CC[C@@](C)(O)CC3)c2n1 [Compound 294] |
| 1 to 10 | 0.1 to 1 | COC[C@H](C)Nc1ncc2c(OC3CCOCC3)ncc(-c3ccc(N4CCN(C)CC4)cc3)c2n1 [Compound 279] |
| 1 to 10 | 0.1 to 1 | CN1CC(Nc2ncc3c(OC4CCOCC4)ncc([C@H]4CC[C@H](O)CC4)c3n2)CC1=O (stereo partly drawn) [Compound 282] |
| 1 to 10 | ≤ 0.1 | COC[C@H](C)Nc1ncc2c(O[C@H]3C[C@H](O)C3)ncc([C@H]3CC[C@H](O)CC3)c2n1 [Compound 295] |
| 1 to 10 | ≤ 0.1 | CC[C@H](C)Nc1ncc2c(=O)n([C@H]3CC[C@H](N)CC3)cc([C@H]3CC[C@H](O)CC3)c2n1 [Compound 290] |
| 1 to 10 | 0.1 to 1 | COCC[C@H](C)Nc1ncc2c(OC3CCOCC3)ncc([C@H]3CC[C@H](O)CC3)c2n1 [Compound 312] |
| 1 to 10 | 0.1 to 1 | COC[C@H](C)Nc1ncc2c(OC3CCOCC3)ncc([C@H]3CC[C@H](NC(C)=O)CC3)c2n1 [Compound 315] |
| 1 to 10 | ≤ 0.1 | COC[C@H](C)Nc1ncc2c(OC3CCOCC3)ncc([C@H]3CC[C@](C)(O)CC3)c2n1 [Compound 293] |
| 1 to 10 | ≤ 0.1 | COC[C@H](C)Nc1ncc2c(O[C@H]3C[C@@H](O)C3)ncc([C@H]3CC[C@H](O)CC3)c2n1 [Compound 296] |
| 1 to 10 | 0.1 to 1 | COC[C@H](C)Nc1ncc2c(OC3CCOCC3)ncc(-c3cccc(S(=O)(=O)N(C)C)c3)c2n1 [Compound 307, (S)-3-(2-((1-methoxypropan-2-yl)amino)-5-((tetrahydro-2H-pyran-4-yl)oxy)pyrido[4,3-d]pyrimidin-8-yl)-N,N-dimethylbenzenesulfonamide] |
| 1 to 10 | ≤ 0.1 | COC[C@H](C)Nc1ncc2c(OC3CCOCC3)ncc(-c3ccc(C4CCN(C)CC4)cc3)c2n1 [Compound 280] |
| 1 to 10 | 0.1 to 1 | COC[C@H](C)Nc1ncc2c(OC3CCOCC3)ncc(-c3ccc(CO)cc3)c2n1 [Compound 335] |
| 1 to 10 | 1 to 10 | CN1C[C@@H](Nc2ncc3c(OC4CCOCC4)ncc([C@H]4CC[C@H](O)CC4)c3n2)CC1=O [Compound 324] |
| 1 to 10 | 0.1 to 1 | COC[C@H](C)Nc1ncc2c(OC3CCOCC3)ncc([C@H]3CC[C@@](O)(C(F)(F)F)CC3)c2n1 [Compound 329] |
| 1 to 10 | 1 to 10 | COC[C@H](C)Nc1ncc2c(OC3CCOCC3)ncc(-c3ccnnc3)c2n1 [Compound 342] |
| 1 to 10 | 0.1 to 1 | COC[C@H](C)Nc1ncc2c(OC3CCOCC3)ncc(-c3ccc(O)cc3)c2n1 [Compound 301] |
